Source: paper PMC2785482, “Combined Bezafibrate and Medroxyprogesterone Acetate: Potential Novel Therapy for Acute Myeloid Leukaemia” (PLoS ONE, 2009)

Target: T1, AKR1C3 (Homo sapiens, UniProt P42330)
T1 construct: Recombinant N-terminal His-tagged AKR1C3
Assay: recombinant AKR1C3 phenanthrenequinone reduction, NADPH absorbance at […] nm
Format: biochemical

T1 sequence (P42330 whole entry): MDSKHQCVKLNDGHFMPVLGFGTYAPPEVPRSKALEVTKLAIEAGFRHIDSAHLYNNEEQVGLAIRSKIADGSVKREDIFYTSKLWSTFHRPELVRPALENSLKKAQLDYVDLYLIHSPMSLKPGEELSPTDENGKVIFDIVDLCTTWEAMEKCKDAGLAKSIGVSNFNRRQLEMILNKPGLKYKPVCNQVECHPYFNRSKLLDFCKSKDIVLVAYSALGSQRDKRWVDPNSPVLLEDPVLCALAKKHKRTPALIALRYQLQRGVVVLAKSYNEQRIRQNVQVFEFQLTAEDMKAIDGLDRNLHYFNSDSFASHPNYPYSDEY

Structure (SMILES): CC(=O)O[C@]1(C(C)=O)CC[C@H]2[C@@H]3C[C@H](C)C4=CC(=O)CC[C@]4(C)[C@H]3CC[C@@]21C [MPA, medroxyprogesterone acetate]
- IC50: 1100 nM
